IC50 and inhibition data for 8 compounds are collected here from ChEMBL document CHEMBL1144136, “Anti-HIV-1 protease triterpenoid saponins from the seeds of Aesculus chinensis” (J Nat Prod, 1999).

Structures are written as SMILES.

For the first experiment, the target named is Protease (Human immunodeficiency virus 1, UniProt Q9YQ12). The experiment in a line: Inhibition of HIV1 protease.
Sequence of Protease (Q9YQ12 whole entry): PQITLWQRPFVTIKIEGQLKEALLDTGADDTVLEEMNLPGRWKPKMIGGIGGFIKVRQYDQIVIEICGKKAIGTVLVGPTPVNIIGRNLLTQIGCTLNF
Usually IC50 stands for the midpoint of a concentration-inhibition curve. Read a high IC50 as weaker potency. With `C/C=C(/C)C(=O)O[C@H]1[C@H](OC(C)=O)[C@]2(CO)[C@H](O)C[C@]3(C)C(=CC[C@@H]4[C@@]5(C)CC[C@H](O[C@@H]6O[C@H](C(=O)O)[C@@H](O[C@@H]7O[C@H](CO)[C@@H](O)[C@H](O)[C@H]7O)[C@H](O)[C@H]6O[C@@H]6O[C@H](CO)[C@@H](O)[C@H](O)[C@H]6O)[C@](C)(CO)[C@@H]5CC[C@]43C)[C@@H]2CC1(C)C` [ESCIN IB], the midpoint of inhibition, the IC50, lay at 50 µM. On the same count and under the same terms, in the case of `C/C=C(\C)C(=O)O[C@H]1[C@H](OC(C)=O)[C@]2(CO)[C@H](O)C[C@]3(C)C(=CC[C@@H]4[C@@]5(C)CC[C@H](O[C@@H]6O[C@H](C(=O)O)[C@@H](O[C@@H]7O[C@H](CO)[C@@H](O)[C@H](O)[C@H]7O)[C@H](O)[C@H]6O[C@@H]6O[C@H](CO)[C@@H](O)[C@H](O)[C@H]6O)[C@](C)(CO)[C@@H]5CC[C@]43C)[C@@H]2CC1(C)C` [ESCIN IA] it was 35 µM.

The target of the next experiment is Protease (Human immunodeficiency virus 1) (UniProt Q9YQ12). The experiment can be described thus: Inhibition of HIV1 protease at 100 uM.
Sequence of Protease (Human immunodeficiency virus 1) (Q9YQ12 as listed by the source): as the sequence (Q9YQ12 whole entry) above
What is called inhibition is the change of the read-out against control, counted positive when it falls. Low readings indicate a weak effect, high ones a strong effect. `C/C=C(/C)C(=O)O[C@H]1[C@H](O)[C@]2(COC(C)=O)[C@H](O)C[C@]3(C)C(=CC[C@@H]4[C@@]5(C)CC[C@H](O[C@@H]6O[C@H](C(=O)O)[C@@H](O[C@@H]7O[C@H](CO)[C@@H](O)[C@H](O)[C@H]7O)[C@H](O)[C@H]6O[C@@H]6O[C@H](CO)[C@@H](O)[C@H](O)[C@H]6O)[C@](C)(CO)[C@@H]5CC[C@]43C)[C@@H]2CC1(C)C` yielded an inhibition of 14.7%.

As to `C/C=C(\C)C(=O)O[C@H]1[C@H](O)[C@]2(COC(C)=O)[C@H](O)C[C@]3(C)C(=CC[C@@H]4[C@@]5(C)CC[C@H](O[C@@H]6O[C@H](C(=O)O)[C@@H](O[C@@H]7O[C@H](CO)[C@@H](O)[C@H](O)[C@H]7O)[C@H](O)[C@H]6O[C@@H]6O[C@H](CO)[C@@H](O)[C@H](O)[C@H]6O)[C@](C)(CO)[C@@H]5CC[C@]43C)[C@@H]2CC1(C)C`, the inhibition worked out at 39%. Compound `C/C=C(\C)C(=O)OC[C@@]12[C@H](O)C[C@]3(C)C(=CC[C@@H]4[C@@]5(C)CC[C@H](O[C@@H]6O[C@H](C(=O)O)[C@@H](O[C@@H]7O[C@H](CO)[C@@H](O)[C@H](O)[C@H]7O)[C@H](O)[C@H]6O[C@@H]6O[C@H](CO)[C@@H](O)[C@H](O)[C@H]6O)[C@](C)(CO)[C@@H]5CC[C@]43C)[C@@H]1CC(C)(C)[C@@H](O)[C@@H]2O` yielded an inhibition of 15.9%. `C/C=C(/C)C(=O)O[C@H]1[C@H](O)C(C)(C)C[C@H]2C3=CC[C@@H]4[C@@]5(C)CC[C@H](O[C@@H]6O[C@H](C(=O)O)[C@@H](O[C@@H]7O[C@H](CO)[C@@H](O)[C@H](O)[C@H]7O)[C@H](O)[C@H]6O[C@@H]6O[C@H](CO)[C@@H](O)[C@H](O)[C@H]6O)[C@](C)(CO)[C@@H]5CC[C@@]4(C)[C@]3(C)C[C@@H](O)[C@]21COC(C)=O`: the inhibition worked out at 34%. For `C/C=C(\C)C(=O)O[C@H]1[C@H](O)C(C)(C)C[C@H]2C3=CC[C@@H]4[C@@]5(C)CC[C@H](O[C@@H]6O[C@H](C(=O)O)[C@@H](O[C@@H]7O[C@H](CO)[C@@H](O)[C@H](O)[C@H]7O)[C@H](O)[C@H]6O[C@@H]6O[C@H](CO)[C@@H](O)[C@H](O)[C@H]6O)[C@](C)(CO)[C@@H]5CC[C@@]4(C)[C@]3(C)C[C@@H](O)[C@]21COC(C)=O`, the inhibition stood at 35.2%. Still for that read-out and setting: next, `C/C=C(/C)C(=O)OC[C@@]12[C@H](O)C[C@]3(C)C(=CC[C@@H]4[C@@]5(C)CC[C@H](O[C@@H]6O[C@H](C(=O)O)[C@@H](O[C@@H]7O[C@H](CO)[C@@H](O)[C@H](O)[C@H]7O)[C@H](O)[C@H]6O[C@@H]6O[C@H](CO)[C@@H](O)[C@H](O)[C@H]6O)[C@](C)(CO)[C@@H]5CC[C@]43C)[C@@H]1CC(C)(C)[C@@H](O)[C@@H]2O`: 12.5%.
